In patent publication US20100273868A1, “R-Zileuton for Use in Conditions Associated with Increased 5-Lipoxygenase and/or Leukotriene Activity (EG Asthma)” (Cornerstone Therapeutics Inc., priority 2007, published 2010):

Key:
[1] = system: LTB4 production in human whole blood; experiment: Human whole blood assay of LTB4 inhibition; format: cell-based; details: for IC50: A23187 50 μM
Method: The potency of racemic and (R)-zileuton was assessed in fresh human whole blood essentially by the methods of Carter et al., J. Pharm. Exp. Ther. 1991: 256:929. Briefly, 0.5.ml of heparinized (20 USP U/ml) human blood from each donor was incubated with vehicle (DMSO), or various concentrations of racemic zileuton, (R)-zileuton or (S)-zileuton (prepared in DMSO) for fifteen minutes at 37° C. Eicosanoid biosynthesis was initiated by the addition of calcium ionophore A23187 in DMSO to a final concentration of 50 μM (final DMSO concentration of 1%). Samples were incubated for an additional 30 minutes at 37° C. in the presence of A23187. The reaction was terminated by cooling in an ice bath for 2 minutes followed by centrifugation. The plasma was then salvaged to an EIA buffer (1M phosphate buffer, pH 7.4) then stored at −80° C. until assay. The level of LTB4 was analyzed by enzyme immunoassay.

[2] = system: LTB4 production in canine whole blood; experiment: Ex vivo inhibition of A23187-stimulated LTB4 production in canine whole blood after oral dosing; details: Canis lupus familiaris, dogs; for inhibition at 10 mg/kg: 10 mg/kg oral; for inhibition at 5 mg/kg: 5 mg/kg oral
Method: To determine the pharmacodynamics of racemic and (R)-zileuton, ex vivo, in fresh canine whole blood, a 0.5 ml aliquot was removed from each pharmacokinetic sample of the study. Each 0.5 ml aliquot of blood was placed into an individually-labeled, 1.5 ml polypropylene tube. Five (5) μl of a 5 mM calcium ionophore A23187 solution (in DMSO) was added to each sample and mixed for 10 seconds on a vortex. Final concentration of A23187 in whole blood was 50 μM (final DMSO concentration was 1%). After mixing, each sample was placed into a 37° C. circulating water bath and allowed to incubate for 30 minutes. […] After incubation, each sample was removed from the water bath and immediately placed onto wet ice for 2 minutes. The samples were removed from the ice after 2 minutes and immediately centrifuged in an Eppendorf Microfuge (VWR Scientific, USA) at 14,000 rpm for 2 minutes at ambient room temperature. After centrifugation, the supernatant (plasma) was collected, diluted into EIA buffer (1M phosphate buffer, pH 7.4) then stored at −80° C. until assay. The level of LTB4 was analyzed by enzyme immunoassay (Cayman Chemical Co., Ann Arbor, Mich.).

[3] = system: cellular infiltration of airways; experiment: Murine model of allergic lung inflammation, ovalbumin challenge, BAL 24 h after final challenge (Example 4); format: in vivo, BALB/c mice; details: oral
Method: Male, BALB/c mice were sensitized intraperitoneally (i.p.) with ovalbumin (10 μg) on days 1 and 14. To provoke an allergic lung inflammatory response, the mice received three intransal (i.n.) challenges with ovalbumin (100 μg) (or saline for sham) on days 29, 30 and 31. After sensitization period, animals were treated orally 30 minutes prior to ovalbumin challenge on days 29, 30 and 31 according to the following regimes: racemic Zileuton (10 mg/kg, four times daily (qid)), Montelukast (0.17 mg/kg, once daily (qd)), Dexamethasone (4 mg/kg, once daily (qd)). Twenty-four hours following the final challenge (n=16 per group, pool of two separate studies), animals were sacrificed and bronchoalveolar lavage (BAL) was performed. Infiltration of airways by inflammatory cells was quantified by cytospin, microscopy and/or flow cytometry. The dose levels and frequencies of zileuton and montelukast were chosen to approximate the human clinical use. Zileuton, Montelukast and Dexamethasone were compared to their respective “qid” and “qd” controls.

[4] = Plasma concentration-time profile (AUC) after oral dosing to dogs; format: in vivo, beagle dogs; details: for AUC: beagle, dog, plasma, gelcaps
Method: The plasma concentration-time profiles for racemic zileuton and (R)-zileuton were evaluated in beagle dogs dosed orally with either 10 mg/kg racemic zileuton or 5 mg/kg (R)-zileuton in gelcaps. Following oral dosing blood samples were collected from the test animals into sodium-EDTA anticoagulant tubes at selected time points up to 48 hours post-dose, processed into plasma and analysed by an LC-MS/MS method for zileuton concentration. The LC-MS/MS method utilized a 0.1% trifluoroacetic in water and methanol gradient HPLC system (initial 45:55 to 10:90% over 4 minutes with a Zorbax SB-C18 4.6×30 mm column at a flow rate of 1.5 mL/min). The retention time of zileuton was 2.0 minutes. A stable labeled version of zileuton was used to internally standardize the analysis. Mass spectrometer analysis by electrospray ionization of the HPLC eluent was performed in SRM mode (ESI 3.5 kV; tube lens voltage 71.0; capillary offset 40.3; L11-24.3; capillary temperature 350° C.; dwell 100 msec; collision energy 15 eV). Plasma concentrations of zileuton in the test samples were estimated by interpolation of sample peak area/height data from a standard concentration-peak area/height plot. The area under the plasma concentration-time (AUC) was calculated by non-compartmental pharmacokinetic analysis (WinNonlin, Pharsight, Mountain View, Calif.) using the trapezoidal rule.

[5] = system: infiltration of inflammatory cells to the airways; experiment: Mouse model of asthma, ovalbumin challenge, BAL 8 h after final challenge (Example 5); format: in vivo, BALB/c mice; details: for inhibition of eosinophils in BAL fluid / inhibition of neutrophil infiltration in BAL fluid / inhibition of the increase in total cellularity of BAL fluid: 4 mg/kg; for efficacy compared with racemic zileuton or S(−) zileuton: 2 or 4 mg/kg oral once a day
Method: Male BALB/c mice were obtained from Taconic Labs (Taconic, N.Y.) and maintained on an OVA-free (ovalbumin-free) diet. After equilibration of at least 5 days, animals were sensitized to OVA and then challenged by the following procedure. On days 1 and 14, sensitization was performed by intraperitoneal (ip) injections of 10 μg OVA emulsified in 2 mg Al(OH)3 (aluminum hydroxide (Aldrox)) in a volume of […]. On days 29, 30 and 31, allergen challenge was performed via intranasal instillation of 20 μL (10 μL/nare) of OVA (1 mg/mL) under light isoflurane anesthesia.
The background control group received no sensitization and no challenge. The sham control group underwent the OVA sensitization procedure, but was challenged with PBS. The vehicle control group was used to determine the maximal response level achievable.
Animals were given Zileuton (at 2 or 4 mg/kg, by mouth (po), once daily (qd)) or (orally) 30 minutes prior to each ovalbumin challenge. Eight hours after the final ovalbumin challenge, animals were sacrificed and bronchoalveolar lavage (BAL) was performed. A tracheal tube was inserted into the trachea and the lungs were lavaged 2 times with pyrogen-free, sterile, PBS containing 0.01% EDTA and 0.05% BSA (Bovine serum albumin). Lavage fluid, maintained at room temperature, was slowly injected into the lungs; lungs were manually massaged to distribute fluid for 30 seconds, bronchoalveolar lavage fluid (BALF) was slowly withdrawn and salvaged to individually-labeled, sterile, polypropylene tubes. The procedure was repeated 2 times/animal and the lavage fluids were pooled. The magnitude of the infiltration of inflammatory cells to the airways was determined by flow cytometry.

## CC(c1cc2ccccc2s1)N(O)C(N)=O (racemic) [racemic zileuton, (±)-1-(1-Benzo[b]thien-2-ylethyl)-1-hydroxyurea]
[1]
  IC50: 745 nM
[2]; 36 hours after administration
  inhibition at 10 mg/kg: ~84%
[2]; time points between 30 minutes and 24 hours after administration
  inhibition at 10 mg/kg: 100%
[3]; 10 mg/kg, qid
  % Inhibition Eosinophils: 99.2 ± 0.02%
  % Inhibition Neutrophils: 87.9 ± 2.3%
  % Inhibition Total cells: 62.2 ± 1.7%
[4]; 10 mg/kg po
  AUC: 87000 ng·h/mL
[5]; po, qd, versus vehicle control
  inhibition of eosinophils in BAL fluid: 67%
  inhibition of neutrophil infiltration in BAL fluid: 54%
  inhibition of the increase in total cellularity of BAL fluid: 66%

## C[C@H](c1cc2ccccc2s1)N(O)C(N)=O [(R)-zileuton]
[1]
  S(−) zileuton IC50/R(+) zileuton IC50 ratio: 11.9
  IC50: 399 nM
[2]; 36 hours after administration
  inhibition at 5 mg/kg: ~74%
[2]; time points between 60 minutes and 24 hours after administration
  inhibition at 5 mg/kg: > 91%
[4]; FIG. 1
  share of the racemic zileuton AUC: 58%
[4]; 5 mg/kg po
  AUC: 52000 ng·h/mL
[5]; 2 mg/kg, po, qd, versus vehicle control
  inhibition of the total cell infiltration: 66%
[5]; po, qd, versus vehicle control
  inhibition of eosinophils in BAL fluid: 75%
  inhibition of neutrophil infiltration in BAL fluid: 65%
  inhibition of the increase in total cellularity of BAL fluid: 85%
[5]
  efficacy compared with racemic zileuton or S(−) zileuton: significantly greater efficacy than racemic zileuton
[5]; listed as R(+) zileuton
  efficacy compared with racemic zileuton or S(−) zileuton: greater efficacy

## C[C@@H](c1cc2ccccc2s1)N(O)C(N)=O [(S)-zileuton]
[1]
  IC50: 4770 nM
[5]; po, qd, versus vehicle control
  inhibition of eosinophils in BAL fluid: 51%
  inhibition of neutrophil infiltration in BAL fluid: 35%
  inhibition of the increase in total cellularity of BAL fluid: not significantly effective

## C[C@@H]1C[C@H]2[C@@H]3CCC4=CC(=O)C=C[C@]4(C)[C@@]3(F)[C@@H](O)C[C@]2(C)[C@@]1(O)C(=O)CO [Dexamethasone]
[3]; 4 mg/kg, qd
  % Inhibition Eosinophils: 99.2 ± 0.02%
  % Inhibition Neutrophils: 90.5 ± 1.1%
  % Inhibition Total cells: 62.5 ± 1.5%

## CC(C)(O)c1ccccc1CC[C@@H](SCC1(CC(=O)O)CC1)c1cccc(/C=C/c2ccc3ccc(Cl)cc3n2)c1 [Montelukast]
[3]; 0.17 mg/kg, qd
  % Inhibition Eosinophils: 99.2 ± 0.02%
  % Inhibition Neutrophils: 23.3 ± 6.6%
  % Inhibition Total cells: 53.3 ± 6.5%
